We go through three compounds from patent US20240108725A1, “METHOD FOR TREATING CANCER AND SYSTEM FOR SAME” (OTSUKA MEDICAL DEVICES CO., LTD, priority 2020, published 2024).

Experiment [1] relates to C6 cells. Kind of experiment: Rate of dead cells in PDT-treated or anti-cancer agent-treated C6 cells (Annexin V/PI), Example 2. The format is cell-based, rat. As to conditions: C6 cells cultured 48 hours with MTX 20 μg/mL, DOX 75 μg/mL or EPI 62.5 μg/mL. Here is the method: C6 cells were cultured in 2.5% FBS/F-12K medium supplemented with 5-ALA to a final concentration of 1 mM in a 5% CO2 incubator at 37° C. for 24 hours. After the culture, the cells were removed with 0.25% trypsin-EDTA solution, and the collected cells were adjusted to 2×10^7 cells/mL with PBS. The cell suspension thus prepared was injected into a Tygon tube (inner diameter: 0.79 mm), wrapped around a light irradiator (Otsuka Electronics Co., Ltd.), and irradiated with light having a wavelength of 630 nm and an irradiation energy density of 7.5 J/cm^2 (illuminance of 124.5 mW/cm^2 for 1 minute). The treated cells were pooled and the irradiation was repeated until the required dose was obtained. The irradiated cells were divided into three equal parts, and one was administered to F344 rats (8 week-old at the start of study, male, Charles River Laboratories Japan Inc.) at 0.5 mL (1×10^7 cells) per animal from the tail vein under isoflurane anesthesia (PDT iv group, 3 animals). Another one was centrifuged to remove its culture supernatant and adjusted to 2×10^7 cells/mL with PBS, and the cell suspension thus prepared was administered at 0.5 mL (1×10^7 cells) per animal from the tail vein in the same manner as the PDT iv group (PDT-cell iv group, 3 animals). The cells of the remaining one of the three equal parts were suspended in 2.5% FBS/F-12K medium and cultured in a 5% CO2 incubator at 37° C. for 24 hours, and then collected and adjusted to 2×10^7 cells/mL with PBS, and the cell suspension thus prepared was administered at 0.5 mL (1×10^7 cells) per animal from the tail vein in the same manner as other groups (PDT/24 h-cell iv group, 3 animals). Intravenous administration of these PDT-treated cells was performed a total of 3 times (Day−15, −8, −1). […]
The PDT-treated or anti-cancer agent-treated C6 cells were stained with FITC-labeled Annexin V and PI by using the FITC Annexin V Apoptosis Detection Kit I. After that, the rate of dead cells was analyzed with a flow cytometer.

Experiment [2] deals with C6 cells. As to the kind of experiment: Tumor volume after subcutaneous transplantation of C6 cells in rats given PDT-treated or anti-cancer agent-treated cells intravenously, Example 2. The format is in vivo, rat. As to conditions: intravenous administration of treated C6 cells to rats. As for the experimental part:
C6 cells were cultured in 2.5% FBS/F-12K medium supplemented with 5-ALA to a final concentration of 1 mM in a 5% CO2 incubator at 37° C. for 24 hours. After the culture, the cells were removed with 0.25% trypsin-EDTA solution, and the collected cells were adjusted to 2×10^7 cells/mL with PBS. The cell suspension thus prepared was injected into a Tygon tube (inner diameter: 0.79 mm), wrapped around a light irradiator (Otsuka Electronics Co., Ltd.), and irradiated with light having a wavelength of 630 nm and an irradiation energy density of 7.5 J/cm^2 (illuminance of 124.5 mW/cm^2 for 1 minute). The treated cells were pooled and the irradiation was repeated until the required dose was obtained. The irradiated cells were divided into three equal parts, and one was administered to F344 rats (8 week-old at the start of study, male, Charles River Laboratories Japan Inc.) at 0.5 mL (1×10^7 cells) per animal from the tail vein under isoflurane anesthesia (PDT iv group, 3 animals). […]
On the 4th, 6th, 8th and 10th days after preparation of the cancer-bearing rats (Day 4, 6, 8, 10), the major axis and the minor axis of the tumor were measured by using a caliper, and the tumor volume was calculated according to the following formula. […]

For experiment [3] the following is noted: subcutaneous administration; had been reported; cited from earlier work.

Where a name gives a salt, the structure may show the parent alone.

For the compound `COc1cccc2c1C(=O)c1c(O)c3c(c(O)c1C2=O)C[C@@](O)(C(=O)CO)C[C@@H]3O[C@H]1C[C@H](N)[C@H](O)[C@H](C)O1` [DOX, doxorubicin hydrochloride], in the experiment with C6 cells [1], the “living cells (Annexin V−/PI−)” value was determined as 5%. For the same compound, the antitumor immunity entry with C6 cells [2] is listed as “not induced”. Also, the immunostimulatory effects result in experiment [3] is recorded as “immunostimulatory effects”.
Regarding `COc1cccc2c1C(=O)c1c(O)c3c(c(O)c1C2=O)C[C@@](O)(C(=O)CO)C[C@@H]3O[C@H]1C[C@H](N)[C@@H](O)[C@H](C)O1` [EPI, epirubicin hydrochloride], the “living cells (Annexin V−/PI−)” value with C6 cells [1] is given as 5%.
`O=C1c2c(O)ccc(O)c2C(=O)c2c(NCCNCCO)ccc(NCCNCCO)c21` [MTX, mitoxantrone dihydrochloride]: in the experiment with C6 cells [1], the “living cells (Annexin V−/PI−)” value was 1%.
